From patent US20260166033A1, “USE OF A FGFR3 TYROSINE KINASE INHIBITOR FOR THE TREATMENT OF FGFR-RELATED BONE REPAIR AND BONE FORMATION IMPAIRMENTS” (INSTITUT NATIONAL DE LA SANTÉ ET DE LA RECHERCHE MÉDICALE, priority 2021, published 2026)

Tests used:
[1] = test system: mouse model of ACH (Fgfr3Y367C/+); conditions: Fgfr3Y367C/+ mice; Komla Ebri et al 2016, Biosse Duplan et al 2016; cited from earlier work
HCH mice (Fgfr3^N534K/+) = experiment: Non-stabilized mandibular fracture bone repair in the HCH mouse model, microCT scans and repair grade; format: in vivo
Method: Mandibular bone repair was studied in the HCH mouse model (Fgfr3^N534K/+). The experiments were performed in adult animals at 6 weeks of age, and mice were euthanized at 4 key points: during bone repair (10, 14, 21 days post fracture), and at the end of the normal bone healing process i.e. at 28 days post fracture.
Vertical mandibular fractures were performed in the ascending ramus region in Fgfr3^N534K/+ and Fgfr3^+/+ mice. This is a non-stabilized mandibular fracture protocol allowing to analyze the endochondral bone repair process.
Four batches (n=100) of Fgfr3^N534K/+ and Fgfr3^+/+ mandible fractures corresponding to different key stages of repair were studied (day 10, day 14, day 21, day 28). Using collagen type II (proliferative cartilage), type X (hypertrophic cartilage) and type I (bone) immunolabelling, we observed that the endochondral process is disturbed, we noted a delayed cartilage resorption, a reduction in the size of hypertrophic chondrocytes area and a defect in bone formation within the repair callus in Fgfr3^N534K/+ compared to Fgfr3^+/+. […] We observed the presence of pseudarthrosis (fibrosis in the callus) in Fgfr3^N534K/+ mice whereas we observed 100% of bone in Fgfr3^+/+ callus. Considering the quality of the newly formed bone at day 28, we defined four grades of repair and classified the mice according to their repair grade (from 1 to 4). The defective repair is significant in Fgfr3^N534K/+ compared to Fgfr3^+/+ (FIG. 1C).
HCH mice (Fgfr3^N534K/+) were treated with infigratinib (subcutaneous injections at 4 mg/kg, 3 times per week) from day 0 (facture of the mandible) to day 14 or day 28. The bone repair analyses were evaluated by microCT scans at day 14 and day 28 post fracture (FIGS. 1A and 1B). We quantified BV/TV (Bone Volume/Total Volume) and Callus volume (ratio TV (total volume) of the callus/TV of the contralateral ascending ramus region).

[2] = day 28 grade repair, treated Fgfr3^N534K/+ mice

In the case of `CCN1CCN(c2ccc(Nc3cc(N(C)C(=O)Nc4c(Cl)c(OC)cc(OC)c4Cl)ncn3)cc2)CC1` [BGJ398, 3-(2,6-dichloro-3,5-dimethoxyphenyl)-1-[6-[4-(4-ethylpiperazin-1-yl)anilino]pyrimidin-4-yl]-1-methylurea], the “Effect on affected skeletal elements (long bones, vertebrae, intervertebral discs, craniofacial morphology, foramen magnum)” value [1] is listed as “improvement of many of the affected skeletal elements in ACH”, the “Effect on defective bone reparation of the callus (summary in words)” value (HCH mice (Fgfr3^N534K/+); HCH mandible, non-stabilized fracture) is listed as “partially restore the defective bone reparation of the callus, increases the bone volume/total volume without pseudarthrosis” and the “Callus volume (ratio TV of the callus/TV of the contralateral ascending ramus region), treated vs untreated HCH mice” value (HCH mice (Fgfr3^N534K/+); day 14 post fracture, subcutaneous 4 mg/kg, 3 times per week from day 0, microCT) is listed as “unchanged”. For the same molecule, the “BV/TV (Bone Volume/Total Volume), change in treated vs untreated HCH mice” value (HCH mice (Fgfr3^N534K/+); day 14 post fracture, subcutaneous 4 mg/kg, 3 times per week from day 0, microCT, p<0.05) was “+20.8%”, the “Complete bone healing (grade 1), mice with this repair grade” value (HCH mice (Fgfr3^N534K/+); [2]) was 7/10 and the “Restoration of bone continuity, but presence of mild bone defects (grade 2), mice with this repair grade” value (HCH mice (Fgfr3^N534K/+); [2]) was 3/10. For the same molecule, the “Callus volume, change in treated vs untreated HCH mice” value (HCH mice (Fgfr3^N534K/+); day 28 post fracture, subcutaneous 4 mg/kg, 3 times per week from day 0, microCT, p<0.0001) was −38.6% and the “BV/TV (Bone Volume/Total Volume), change in treated vs untreated HCH mice” value (HCH mice (Fgfr3^N534K/+); day 28 post fracture, subcutaneous 4 mg/kg, 3 times per week from day 0, microCT, p<0.01) was “+17.8%”.
